Source: PubChem BioAssay (NCI)
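Briefly, cells in 96-well plates were exposed to five compound concentrations for 48 h, and endpoints were estimated by linear interpolation. The concentration for 50% growth inhibition is given as GI50. TGI: total growth inhibition.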

Tests used:
Assay in all cases: NCI anticancer screen, dose series, 48 h
COLO 205 colon = system: COLO 205 colon
HL-60(TB) leukemia = system: HL-60(TB) leukemia
MDA-MB-435 = system: MDA-MB-435
OVCAR-5 ovarian = system: OVCAR-5 ovarian
PC-3 prostate = system: PC-3 prostate
SF-539 CNS = system: SF-539 CNS
SK-MEL-28 melanoma = system: SK-MEL-28 melanoma
SN12C renal = system: SN12C renal
SNB-75 CNS = system: SNB-75 CNS
CCRF-CEM leukemia = system: CCRF-CEM leukemia

SMILES	GI50 (COLO 205 colon) [µM]	TGI (COLO 205 colon) [µM]	GI50 (HL-60(TB) leukemia) [µM]	TGI (HL-60(TB) leukemia) [µM]	GI50 (MDA-MB-435) [µM]	TGI (MDA-MB-435) [µM]	GI50 (OVCAR-5 ovarian) [µM]	TGI (OVCAR-5 ovarian) [µM]	GI50 (PC-3 prostate) [µM]	TGI (PC-3 prostate) [µM]	GI50 (SF-539 CNS) [µM]	TGI (SF-539 CNS) [µM]	GI50 (SK-MEL-28 melanoma) [µM]	TGI (SK-MEL-28 melanoma) [µM]	GI50 (SN12C renal) [µM]	TGI (SN12C renal) [µM]	GI50 (SNB-75 CNS) [µM]	TGI (SNB-75 CNS) [µM]	TGI (CCRF-CEM leukemia) [µM]
CCOC(=O)c1c(-c2ccccc2)[n+](=O)c2ccc(Cl)cc2n1[O-]	3.89	13.6	5.66	20.3	10.2	26.4	7.12	20.2	3.05	12	2.97	13.1	18	52.7	3.38	13.1	3.18	18.8	–
COC(=O)C(=O)C(C(=O)C(=O)Nc1ccc(Cl)cc1C)c1nc2ccc(C(=O)c3ccccc3)cc2[nH]c1=O (stereo unspecified)	–	> 100	–	> 100	–	–	–	> 100	–	–	–	> 100	–	–	–	> 100	–	> 100	> 100
O=C1C(=O)N(C(=O)c2ccc(Cl)c(Cl)c2)c2ccc(Cl)cc21	–	> 100	–	61.6	–	–	–	> 100	–	–	–	> 100	–	> 100	–	–	–	> 100	> 100
COc1ccc2c(c1)CCc1c(-c3noc4c3CCc3cc(OC)ccc3-4)noc1-2	–	> 100	–	> 100	–	> 100	–	> 100	–	> 100	–	> 100	–	> 100	–	> 100	–	> 100	–
O=c1c2ccccc2nc(-c2ccc(Br)cc2)n1NC1OC(CO)C(O)C(O)C1O (stereo unspecified)	–	> 100	–	> 100	–	–	–	> 100	–	–	–	> 100	–	> 100	–	> 100	–	> 100	> 100
CC(=O)NC(CCCCNC(=O)N(CCCl)N=O)C(=O)NCc1ccccc1 (stereo unspecified)	–	> 100	–	> 100	–	–	–	–	–	–	–	> 100	–	> 100	–	> 100	–	> 100	> 100
COc1ccc(-c2cc(=O)c3c(OC)c(OC)c(OC)c(OC)c3o2)cc1OC	–	> 100	–	59	–	> 100	–	> 100	–	–	–	> 100	–	> 100	–	> 100	–	> 100	> 100
Cc1ccc(S(=O)(=O)/N=c2\ssc(Nc3ccccc3)c2Cl)cc1	–	–	15.5	> 50	8.41	22.1	21.1	> 50	6.95	18.4	–	–	–	–	8.99	25.6	–	–	–
NC(=O)N/N=C(\C(=O)C(=O)Nc1ccc(Cl)c(C(F)(F)F)c1)c1nc2ccc(C(=O)c3ccccc3)cc2[nH]c1=O	–	> 100	–	–	–	–	–	> 100	–	–	–	> 100	–	> 100	–	> 100	–	–	> 100
